Molecular target: human Cat S (Homo sapiens (Human), UniProt P25774)
Experiment: Cathepsin enzyme inhibition assay (fluorogenic peptide substrate Z-Val-Val-Arg-AMC)
Type: biochemical
Conditions: enzyme 1 nM, substrate 20 μM, pH 6.5
Protocol: Cathepsin Enzyme Inhibition Assay
Enzyme activity is measured by observing the increase in fluorescence intensity caused by cleavage of a peptide substrate containing a fluorophore whose emission is quenched in the intact peptide.
Assay buffer: 100 mM potassium phosphate pH 6.5, EDTA-Na 5 mM, Triton X-100 0.001%, DTT 5 mM.
Enzymes (all at 1 nM): human and mouse Cathepsin S, Cat K, Cat B, Cat L.
Substrate (20 μM): Z-Val-Val-Arg-AMC, except for Cat K which uses Z-Leu-Arg-AMC (both from Bachem).
AMC=7-Amino-4-Methyl-Coumarin.
Excitation 360 nm, Emission 465 nm.
Enzyme is added to the substance dilutions in 96-well microtitre plates and the reaction is started with substrate. […] IC50 are calculated by standard methods.
Inhibition of human Cat S, mouse Cat S, human Cat K, human Cat B, human Cat L and mouse Cat L have been measured separately.

human Cat S, sequence (P25774 115-331): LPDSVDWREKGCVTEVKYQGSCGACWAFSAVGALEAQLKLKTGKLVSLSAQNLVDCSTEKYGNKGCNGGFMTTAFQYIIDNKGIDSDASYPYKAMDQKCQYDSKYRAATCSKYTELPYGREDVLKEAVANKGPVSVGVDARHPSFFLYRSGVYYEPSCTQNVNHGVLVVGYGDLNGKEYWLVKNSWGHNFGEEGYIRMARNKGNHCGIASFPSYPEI

Row | Structure (SMILES) | IC50
1 | Cc1cc(C(F)(F)F)nn1-c1ccc(S(=O)(=O)[C@@H]2C[C@@H](C(=O)NC3(C#N)CC3)N(C(=O)C3(C(F)(F)F)CC3)C2)c(C(F)(F)F)c1 [Example 23, (2S,4R)-4-[4-(5-Methyl-3-trifluoromethyl-pyrazol-1-yl)-2-trifluoromethyl-benzenesulfonyl]-1-(1-trifluoromethyl-cyclopropanecarbonyl)-pyrrolidine-2-carboxylic acid (1-cyano-cyclopropyl)-amide] | 1.12 nM
2 | Cc1nncn1-c1ccc(S(=O)(=O)[C@@H]2C[C@@H](C(=O)NC3(C#N)CC3)N(C(=O)C3(C(F)(F)F)CC3)C2)c(C(F)(F)F)c1 [Example 25, (2S,4R)-4-[4-(3-Methyl-[1,2,4]triazol-4-yl)-2-trifluoromethyl-benzenesulfonyl]-1-(1-trifluoromethyl-cyclopropanecarbonyl)-pyrrolidine-2-carboxylic acid (1-cyano-cyclopropyl)-amide] | 3.27 nM
3 | Cc1nc(C)n(-c2ccc(S(=O)(=O)[C@@H]3C[C@@H](C(=O)NC4(C#N)CC4)N(C(=O)C4(C(F)(F)F)CC4)C3)c(C(F)(F)F)c2)n1 [Example 27, (2S,4R)-4-[4-(3,5-Dimethyl-[1,2,4]triazol-1-yl)-2-trifluoromethyl-benzenesulfonyl]-1-(1-trifluoromethyl-cyclopropanecarbonyl)-pyrrolidine-2-carboxylic acid (1-cyano-cyclopropyl)-amide] | 0.558 nM
4 | Cc1cc(-c2ccccc2C=O)ccc1S(=O)(=O)[C@@H]1C[C@@H](C(=O)NC2(C#N)CC2)N(C(=O)C2(C(F)(F)F)CC2)C1 [Example 29, (2S,4R)—N-(1-cyanocyclopropyl)-4-(2′-formyl-3-methylbiphenyl-4-ylsulfonyl)-1-(1-(trifluoromethyl)cyclopropanecarbonyl)pyrrolidine-2-carboxamide] | 0.811 nM
5 | Cc1ncnn1-c1ccc(S(=O)(=O)[C@@H]2C[C@@H](C(=O)NC3(C#N)CC3)N(C(=O)C3(C(F)(F)F)CC3)C2)c(C(F)(F)F)c1 [Example 31, (2S,4R)—N-(1-cyanocyclopropyl)-4-(4-(5-methyl-1H-1,2,4-triazol-1-yl)-2-(trifluoromethyl)phenylsulfonyl)-1-(1-(trifluoromethyl)cyclopropanecarbonyl) pyrrolidine-2-carboxamide] | 0.54 nM
6 | Cc1cc(-c2cc(C(F)(F)F)nn2C)ccc1S(=O)(=O)[C@@H]1C[C@@H](C(=O)NC2(C#N)CC2)N(C(=O)C2(C(F)(F)F)CC2)C1 [Example 32, (2S,4R)—N-(1-cyanocyclopropyl)-4-(2-methyl-4-(1-methyl-3-(trifluoromethyl)-1H-pyrazol-5-yl)phenylsulfonyl)-1-(1-(trifluoromethyl)cyclopropanecarbonyl) pyrrolidine-2-carboxamide] | 0.955 nM
7 | N#CC1(NC(=O)[C@@H]2C[C@@H](S(=O)(=O)c3ccc(-n4ccnn4)cc3)CN2C(=O)C2(C(F)(F)F)CC2)CC1 [Example 34, (2S,4R)-4-(4-(1H-1,2,3-triazol-1-yl)phenylsulfonyl)-N-(1-cyanocyclopropyl)-1-(1-(trifluoromethyl)cyclopropanecarbonyl)pyrrolidine-2-carboxamide] | 1.06 nM
8 | Cc1cc(C(F)(F)F)nn1-c1ccc(S(=O)(=O)[C@@H]2C[C@@H](C(=O)NC3(C#N)CC3)N(C(=O)C3(C(F)(F)F)CC3)C2)cc1 [Example 36, (2S,4R)—N-(1-cyanocyclopropyl)-4-(4-(5-methyl-3-(trifluoromethyl)-1H-pyrazol-1-yl)phenylsulfonyl)-1-(1-(trifluoromethyl)cyclopropanecarbonyl)pyrrolidine-2-carboxamide] | 2.6 nM
9 | Cc1cc(-c2ccccc2C#N)ccc1S(=O)(=O)[C@@H]1C[C@@H](C(=O)NC2(C#N)CC2)N(C(=O)C2(C(F)(F)F)CC2)C1 [Example 41, (2S,4R)-4-(2′-cyano-3-methylbiphenyl-4-ylsulfonyl)-N-(1-cyanocyclopropyl)-1-(1-(trifluoromethyl)cyclopropanecarbonyl)pyrrolidine-2-carboxamide] | 0.86 nM
10 | N#CC1(NC(=O)[C@@H]2C[C@@H](S(=O)(=O)c3ccc(-c4ccc5c(c4)OC(F)(F)O5)cc3C(F)(F)F)CN2C(=O)C2(C(F)(F)F)CC2)CC1 [Example 45, (2S,4R)-4-[4-(2,2-Difluoro-benzo[1,3]dioxol-5-yl)-2-trifluoromethyl-benzenesulfonyl]-1-(1-trifluoromethyl-cyclopropanecarbonyl)-pyrrolidine-2-carboxylic acid (1-cyano-cyclopropyl)-amide] | 1.07 nM

The remaining compounds from weak to strong by IC50, led by results:

Row | IC50 | Structure (SMILES)
11 | 3.57 nM | N#CC1(NC(=O)[C@@H]2C[C@@H](S(=O)(=O)c3ccc(-c4ccccc4CO)cc3)CN2C(=O)C2(C(F)(F)F)CC2)CC1 [Example 43, (2S,4R)—N-(1-cyanocyclopropyl)-4-(2′-(hydroxymethyl)biphenyl-4-ylsulfonyl)-1-(1-(trifluoromethyl)cyclopropanecarbonyl)pyrrolidine-2-carboxamide]
12 | 3.21 nM | CCOc1ccccc1-c1ccc(S(=O)(=O)[C@@H]2C[C@@H](C(=O)NC3(C#N)CC3)N(C(=O)C3(C(F)(F)F)CC3)C2)cc1 [Example 38, (2S,4R)—N-(1-cyanocyclopropyl)-4-(2′-ethoxybiphenyl-4-ylsulfonyl)-1-(1-(trifluoromethyl)cyclopropanecarbonyl)pyrrolidine-2-carboxamide]
13 | 2.33 nM | Cn1nc(C(F)(F)F)cc1-c1ccc(S(=O)(=O)[C@@H]2C[C@@H](C(=O)NC3(C#N)CC3)N(C(=O)C3(C(F)(F)F)CC3)C2)cc1 [Example 28, (2S,4R)—N-(1-cyanocyclopropyl)-4-(4-(1-methyl-3-(trifluoromethyl)-1H-pyrazol-5-yl)phenylsulfonyl)-1-(1-(trifluoromethyl)cyclopropanecarbonyl)pyrrolidine-2-carboxamide]
14 | 1.89 nM | N#CC1(NC(=O)[C@@H]2C[C@@H](S(=O)(=O)c3ccc(-c4ccccc4C=O)cc3)CN2C(=O)C2(C(F)(F)F)CC2)CC1 [Example 37, (2S,4R)—N-(1-cyanocyclopropyl)-4-(2′-formylbiphenyl-4-ylsulfonyl)-1-(1-(trifluoromethyl)cyclopropanecarbonyl)pyrrolidine-2-carboxamide]
15 | 1.57 nM | Cc1nc(C)n(-c2ccc(S(=O)(=O)[C@@H]3C[C@@H](C(=O)NC4(C#N)CC4)N(C(=O)C4(C(F)(F)F)CC4)C3)cc2)n1 [Example 33, (2S,4R)—N-(1-cyanocyclopropyl)-4-(4-(3,5-dimethyl-1H-1,2,4-triazol-1-yl)phenylsulfonyl)-1-(1-(trifluoromethyl)cyclopropanecarbonyl)pyrrolidine-2-carboxamide]
16 | 1.46 nM | CCOc1cc(F)c(F)cc1-c1ccc(S(=O)(=O)[C@@H]2C[C@@H](C(=O)NC3(C#N)CC3)N(C(=O)C3(C(F)(F)F)CC3)C2)c(C)c1 [Example 42, (2S,4R)—N-(1-cyanocyclopropyl)-4-(2′-ethoxy-4′,5′-difluoro-3-methylbiphenyl-4-ylsulfonyl)-1-(1-(trifluoromethyl)cyclopropanecarbonyl)pyrrolidine-2-carboxamide]
17 | 1.21 nM | CCOc1ccccc1-c1ccc(S(=O)(=O)[C@@H]2C[C@@H](C(=O)NC3(C#N)CC3)N(C(=O)C3(C(F)(F)F)CC3)C2)c(C)c1 [Example 40, (2S,4R)—N-(1-cyanocyclopropyl)-4-(2′-ethoxy-3-methylbiphenyl-4-ylsulfonyl)-1-(1-(trifluoromethyl)cyclopropanecarbonyl)pyrrolidine-2-carboxamide]
18 | 1.17 nM | Cc1nc(C)c(-c2ccc(S(=O)(=O)[C@@H]3C[C@@H](C(=O)NC4(C#N)CC4)N(C(=O)C4(C(F)(F)F)CC4)C3)c(C(F)(F)F)c2)s1 [Example 48, (2S,4R)-4-[4-(2,4-Dimethyl-thiazol-5-yl)-2-trifluoromethyl-benzenesulfonyl]-1-(1-trifluoromethyl-cyclopropanecarbonyl)-pyrrolidine-2-carboxylic acid (1-cyano-cyclopropyl)-amide]
19 | 1.02 nM | N#CC1(NC(=O)[C@@H]2C[C@@H](S(=O)(=O)c3ccc(-n4ccc(C(F)(F)F)n4)cc3)CN2C(=O)C2(C(F)(F)F)CC2)CC1 [Example 35, (2S,4R)—N-(1-cyanocyclopropyl)-4-(4-(3-(trifluoromethyl)-1H-pyrazol-1-yl)phenylsulfonyl)-1-(1-(trifluoromethyl)cyclopropanecarbonyl)pyrrolidine-2-carboxamide]
20 | 0.772 nM | Cc1ncn(-c2ccc(S(=O)(=O)[C@@H]3C[C@@H](C(=O)NC4(C#N)CC4)N(C(=O)C4(C(F)(F)F)CC4)C3)c(C(F)(F)F)c2)n1 [Example 24, (2S,4R)-4-[4-(3-Methyl-[1,2,4]triazol-1-yl)-2-trifluoromethyl-benzenesulfonyl]-1-(1-trifluoromethyl-cyclopropanecarbonyl)-pyrrolidine-2-carboxylic acid (1-cyano-cyclopropyl)-amide]
21 | 0.51 nM | Cc1cc(-c2cnc(N)nc2)ccc1S(=O)(=O)[C@@H]1C[C@@H](C(=O)NC2(C#N)CC2)N(C(=O)C2(C(F)(F)F)CC2)C1 [Example 44, (2S,4R)-4-(4-(2-aminopyrimidin-5-yl)-2-methylphenylsulfonyl)-N-(1-cyanocyclopropyl)-1-(1-(trifluoromethyl)cyclopropanecarbonyl)pyrrolidine-2-carboxamide]
22 | 0.483 nM | N#CC1(NC(=O)[C@@H]2C[C@@H](S(=O)(=O)c3ccc(-c4cnc(N)nc4)cc3)CN2C(=O)C2(C(F)(F)F)CC2)CC1 [Example 39, (2S,4R)-4-(4-(2-aminopyrimidin-5-yl)phenylsulfonyl)-N-(1-cyanocyclopropyl)-1-(1-(trifluoromethyl)cyclopropanecarbonyl)pyrrolidine-2-carboxamide]

Reference: patent publication US10689339B2, “Pyrrolidine derivatives” (Hoffmann-La Roche Inc., priority 2016, dated 2020)
